Source: ChEMBL document CHEMBL1156474, “Phenotypic and structural analyses of hepatitis C virus NS3 protease Arg155 variants: sensitivity to telaprevir (VX-950) and interferon alpha” (J Biol Chem, 2007)
Changes are numbered by the printed parent chain. Names and notes keep the numbering of the source.

Columns and labels:
Hepatitis C virus [1] = assay: Antiviral activity against HCV 1b Con1 with NS3-4A R155K mutation in human Huh7 cells after 48 hrs by replicon cell assay; type: functional, organism-based, Hepacivirus hominis; settings: genotype 1b Con 1, Huh-7, 48 h
Hepatitis C virus [2] = assay: Antiviral activity against wild type HCV 1b Con1 in human Huh7 cells after 48 hrs by replicon cell assay; type: functional, organism-based, Hepacivirus hominis; settings: genotype 1b Con 1, Huh-7, 48 h
Hepatitis C virus [3] = assay: Ratio of IC50 for HCV 1b with NS3-4 R155K mutation to IC50 for wild type HCV 1b; type: functional, Hepacivirus hominis, genotype 1b
Hepatitis C virus [4] = assay: (§1) Antiviral activity against HCV 1b with NS3-4A R155T mutation in human Huh7 cells after 48 hrs by replicon cell assay; type: functional, organism-based, Hepacivirus hominis; settings: genotype 1b, Huh-7, 48 h
Hepatitis C virus [5] = assay: Ratio of IC50 for HCV 1b with NS3-4A R155G mutation to IC50 for wild type HCV 1b; type: functional, Hepacivirus hominis, genotype 1b
Hepatitis C virus [6] = assay: Ratio of IC50 for HCV 1b with NS3-4A R155T mutation to IC50 for wild type HCV 1b; type: functional, Hepacivirus hominis, genotype 1b
Hepatitis C virus [7] = assay: Antiviral activity against HCV 1b with NS3-4A R155M mutation in human Huh7 cells after 48 hrs by replicon cell assay; type: functional, organism-based, Hepacivirus hominis; settings: genotype 1b, Huh-7, 48 h
Hepatitis C virus [8] = assay: Antiviral activity against HCV with NS3-4A R155S mutation in human Huh7.5 cells assessed as replication capacity by luciferase assay relative to wild type HCV; type: functional, Hepacivirus hominis, Huh-7
Hepatitis C virus [9] = assay: Antiviral activity against HCV with NS3-4A R155I mutation in human Huh7.5 cells assessed as replication capacity by luciferase assay relative to wild type HCV; type: functional, Hepacivirus hominis, Huh-7
Hepatitis C virus [10] = assay: Antiviral activity against wild type HCV in human Huh7.5 cells assessed as replication capacity by luciferase assay; type: functional, Hepacivirus hominis, Huh-7
Hepatitis C virus [11] = assay: as §1; type: functional, organism-based, Hepacivirus hominis; settings: genotype 1b, Huh-7, 48 h; remark: listed apart in the source
NS3 protease [12] = molecular target: NS3 protease (Hepacivirus C, UniProt C1KIQ2, R155I); assay: Inhibition of HCV 1a NS3-4A R155I mutant protease after 60 mins; design: species or system Hepatitis C virus subtype 1a
[13] = Inhibition of wild type HCV 1a NS3-4A protease after 60 mins
Hepatitis C virus [14] = assay: Antiviral activity against HCV 1b with NS3-4A R155I mutation in human Huh7 cells after 48 hrs by replicon cell assay; type: functional, organism-based, Hepacivirus hominis; settings: genotype 1b, Huh-7, 48 h
NS3 protease [15] = molecular target: NS3 protease (Hepacivirus C, UniProt C1KIQ2, R155S); assay: Inhibition of HCV 1a NS3-4A protease R155S mutant after 60 mins; design: species or system Hepatitis C virus subtype 1a
NS3 protease [16] = molecular target: NS3 protease (Hepacivirus C, UniProt C1KIQ2, R155T); assay: Inhibition of HCV 1a NS3-4A R155T mutant protease after 60 mins; design: species or system Hepatitis C virus subtype 1a
Hepatitis C virus [17] = assay: Ratio of IC50 for HCV 1b with NS3-4A R155M mutation to IC50 for wild type HCV 1b; type: functional, Hepacivirus hominis, genotype 1b
Hepatitis C virus [18] = assay: Antiviral activity against HCV with NS3-4A R155M mutation in human Huh7.5 cells assessed as replication capacity by luciferase assay relative to wild type HCV; type: functional, Hepacivirus hominis, Huh-7
Hepatitis C virus [19] = assay: Antiviral activity against HCV with NS3-4A R155K mutation in human Huh7.5 cells after assessed as replication capacity by luciferase assay relative to wild type HCV; type: functional, Hepacivirus hominis, Huh-7
NS3 protease [20] = molecular target: NS3 protease (Hepacivirus C, UniProt C1KIQ2, R155K); assay: Inhibition of HCV 1a NS3-4A R155K mutant protease after 60 mins; design: species or system Hepatitis C virus subtype 1a
Hepatitis C virus [21] = assay: Ratio of IC50 for HCV 1b with NS3-4A R155I mutation to IC50 for wild type HCV 1b; type: functional, Hepacivirus hominis, genotype 1b
Hepatitis C virus [22] = assay: Antiviral activity against HCV 1b with NS3-4A R155G mutation in human Huh7 cells after 48 hrs by replicon cell assay; type: functional, organism-based, Hepacivirus hominis; settings: genotype 1b, Huh-7, 48 h
Hepatitis C virus [23] = assay: Ratio of IC50 for HCV 1b with NS3-4A R155S mutation to IC50 for wild type HCV 1b; type: functional, Hepacivirus hominis, genotype 1b
Hepatitis C virus [24] = assay: Antiviral activity against HCV with NS3-4A R155T mutation in human Huh7.5 cells assessed as replication capacity by luciferase assay relative to wild type HCV; type: functional, Hepacivirus hominis, Huh-7
[25] = test system: Hepatitis C virus subtype 1a
Description: Activity of wild type HCV 1a NS3-4A protease

Hepatitis C virus [26] = assay: Antiviral activity against HCV with NS3-4A R155G mutation in human Huh7.5 cells assessed as replication capacity by luciferase assay relative to wild type HCV; type: functional, Hepacivirus hominis, Huh-7
[27] = substrate: CCC[C@H](NC(=O)[C@@H]1[C@H]2CCC[C@H]2CN1C(=O)[C@@H](NC(=O)[C@@H](NC(=O)c1cnccn1)C1CCCCC1)C(C)(C)C)C(=O)C(=O)NC1CC1; settings: Hepatitis C virus subtype 1a
[28] = substrate: CCC[C@H](NC(=O)[C@@H]1[C@H]2CCC[C@H]2CN1C(=O)[C@@H](NC(=O)[C@@H](NC(=O)c1cnccn1)C1CCCCC1)C(C)(C)C)C(=O)C(=O)NC1CC1; settings: Hepatitis C virus subtype 1a; remark: listed apart in the source
[29] = substrate: CCC[C@H](NC(=O)[C@@H]1[C@H]2CCC[C@H]2CN1C(=O)[C@@H](NC(=O)[C@@H](NC(=O)c1cnccn1)C1CCCCC1)C(C)(C)C)C(=O)C(=O)NC1CC1; settings: Hepatitis C virus subtype 1a; remark: listed apart in the source

NS3 protease (Hepacivirus C, UniProt C1KIQ2, R155I), sequence (C1KIQ2 entry or part of it R155I): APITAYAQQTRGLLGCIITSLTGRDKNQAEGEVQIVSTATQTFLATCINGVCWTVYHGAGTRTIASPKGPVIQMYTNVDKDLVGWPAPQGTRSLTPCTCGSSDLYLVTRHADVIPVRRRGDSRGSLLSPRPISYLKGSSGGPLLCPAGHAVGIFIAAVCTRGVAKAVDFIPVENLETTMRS
NS3 protease (Hepacivirus C, UniProt C1KIQ2, R155S), sequence (C1KIQ2 entry or part of it R155S): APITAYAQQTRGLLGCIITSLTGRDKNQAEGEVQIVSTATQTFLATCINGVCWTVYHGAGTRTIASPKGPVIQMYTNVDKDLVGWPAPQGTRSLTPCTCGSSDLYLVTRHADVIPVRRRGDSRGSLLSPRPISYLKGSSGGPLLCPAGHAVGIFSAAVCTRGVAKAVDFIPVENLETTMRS
NS3 protease (Hepacivirus C, UniProt C1KIQ2, R155T), sequence (C1KIQ2 entry or part of it R155T): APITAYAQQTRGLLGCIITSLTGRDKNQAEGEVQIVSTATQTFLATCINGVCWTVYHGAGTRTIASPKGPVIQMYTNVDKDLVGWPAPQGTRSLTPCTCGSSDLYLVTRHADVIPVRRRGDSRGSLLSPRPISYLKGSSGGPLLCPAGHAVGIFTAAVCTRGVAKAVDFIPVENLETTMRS

## NC(=O)c1ncn([C@@H]2O[C@H](CO)[C@@H](O)[C@H]2O)n1 [RIBAVIRIN]
Hepatitis C virus [1]
  IC50: 37 µM
Hepatitis C virus [2]
  IC50: 58 µM
Hepatitis C virus [3]
  fold change (FC): 0.6
Hepatitis C virus [4]
  IC50: 32 µM
Hepatitis C virus [5]
  fold change (FC): 0.7
Hepatitis C virus [6]
  fold change (FC): 0.6
Hepatitis C virus [7]
  IC50: 39 µM

## CCC[C@H](NC(=O)[C@@H]1[C@H]2CCC[C@H]2CN1C(=O)[C@@H](NC(=O)[C@@H](NC(=O)c1cnccn1)C1CCCCC1)C(C)(C)C)C(=O)C(=O)NC1CC1 [TELAPREVIR]
Hepatitis C virus [8]
  Activity: 45%
Hepatitis C virus [9]
  Activity: 19%
Hepatitis C virus [10]
  Activity: 100%
Hepatitis C virus [11]
  IC50: 2 µM
NS3 protease [12]
  IC50: 0.88 µM
[13]
  IC50: 0.05 µM
Hepatitis C virus [14]
  IC50: 11.7 µM
NS3 protease [15]
  IC50: 1.15 µM
NS3 protease [16]
  IC50: 0.49 µM
Hepatitis C virus [1]
  IC50: 3.6 µM
Hepatitis C virus [2]
  IC50: 0.49 µM
Hepatitis C virus [17]
  fold change (FC): 5.5
Hepatitis C virus [18]
  Activity: 18%
Hepatitis C virus [19]
  Activity: 80%
NS3 protease [20]
  IC50: 0.51 µM
Hepatitis C virus [21]
  fold change (FC): 24
Hepatitis C virus [3]
  fold change (FC): 7.4
Hepatitis C virus [4]
  IC50: 9.6 µM
Hepatitis C virus [22]
  IC50: 3.6 µM
Hepatitis C virus [5]
  fold change (FC): 7.4
Hepatitis C virus [6]
  fold change (FC): 19.8
Hepatitis C virus [23]
  fold change (FC): 4.1
Hepatitis C virus [24]
  Activity: 41%
[25]
  Km: 53 µM
Hepatitis C virus [26]
  Activity: 10%
Hepatitis C virus [7]
  IC50: 2.7 µM

B1: NS3 protease (Hepacivirus C), C1KIQ2 R155K (protein)
chain: APITAYAQQTRGLLGCIITSLTGRDKNQAEGEVQIVSTATQTFLATCINGVCWTVYHGAGTRTIASPKGPVIQMYTNVDKDLVGWPAPQGTRSLTPCTCGSSDLYLVTRHADVIPVRRRGDSRGSLLSPRPISYLKGSSGGPLLCPAGHAVGIFKAAVCTRGVAKAVDFIPVENLETTMRS
[27]
  Km: 168 µM

B2: NS3 protease (Hepacivirus C), C1KIQ2 R155S (protein)
chain: B1 chain with K155S
[28]
  Km: 552 µM

B3: NS3 protease (Hepacivirus C), C1KIQ2 R155T (protein)
chain: B1 chain with K155T
[29]
  Km: 68 µM
